Assay type in all cases: cell-based, human
One test concerns CD4+ T cells. In words: Transwell migration assay. Conditions: CCL-20 5 ng/ml in lower chamber, 4 h. The protocol:
(A, B) IL-22 is expressed by immune cells in colon cancer tissues. Different cell populations were sorted from colon cancer tissues and IL-22 expression was measured by real time PCR. (5-10 donors, P<0.05). (C) IL-22 is spontaneously released by different immune cell populations in colon cancer tissues. Different CD45^+ immune subsets (10^6/ml) were sorted from colon cancer and blood, and cultured for 12 hours. IL-22 was detected via ELISA. (n=5, *P<0.05). (D, E) IL-22 is expressed by activated CD4^+ T cells in colon cancer tissues. CD45^+ subsets (10^6/ml) were sorted from colon cancer and blood, and were activated with anti-CD3 and anti-CD28 for 2 days. IL-22 was detected with ELISA (D) or intracellular staining (E). (n=5, *P<0.05). (F, G) CCR6^+CD4^+ T cells express IL-22. CD4^+ T cells were sorted based on CCR6 expression and activated with anti-CD3 and anti-CD28 and antigen presenting cells. IL-22 mRNA was detected by real time PCR (F) and protein by ELISA (G). (5 different donors, P<0.05). […] IL-22 expression was quantified with real-time PCR in the migrated and non-migrated cells. Results are expressed as the mean relative expression (H). The phenotype of migrated cells, non-migrated cells and control (before migration) was analyzed by FACS (I). […] The mRNA of stem cell core genes was detected by real-time PCR after 6 hours (K) and ALDH activity was detected by FACS after 48 hours (L). […]

The subject of the next test is colon cancer cells. Kind of test: Colon cancer cell proliferation (Ki67 FACS, H3 thymidine incorporation, cell counting). Conditions: H3 thymidine incorporation. The text has this:
A. GSEA analysis identifies proliferation pathways have positive correlation with IL-22. B. Cell proliferation maker Ki67 was detected by FACS. C. H^3 Thymidine Incorporation was used to detect the function of IL-22 in cell proliferation. D. Cell number was counted after stimulated with IL-22. E. Cells isolated from colon cancer tissue (Tumor cells and Leukocytes) were stimulated with a-CD3 and […] for 3 days, and supernatant mixed with or without anti-IL-22 antibody was co-cultured with DLD1 cells for 24 h to test cell proliferation. F. Cell cyclin-dependent kinase and kinase inhibitors were analyzed by Real-Time PCR.
A, C. Cell proliferation was analyzed using H^3 Thymidine Incorporation. B. The level of total H3K79m2 and H3K27me3 was measured by Western Blot. D. PcG proteins of EZH2, EED, SUZ12 was increased with IL-22(20 ng/ml) treatment. E. EZH2, SUZ12 and EED was detected by Western Blot after IL-22 treated for 24 h or 48 h. F. EZH2 inhibitor DZNep reduced cell proliferation. G.H. The efficiency of EZH2 and SUZ12 knock down was tested by Western Blot. I.J. Cell proliferation was analyzed using H^3 Thymidine Incorporation after knock down of EZH2 and SUZ12. K.L. Relative expression of cyclin-dependent kinase inhibitors (p16 and p18) in shEZH2, shSUZ12 and Dznep treated cells after IL-22 treatment. M. The level of H3K27me3 in the promoter of p16 and p18 was analyzed by ChIP assay.
A. The protein level of phosphorylated STAT3, STAT1 and STATS were activated by IL-22. B. The effect of STAT3 knock down. C. The effect of IL-22 on cell proliferation was analyzed using H^3 Thymidine Incorporation in Stat3 knock down cells. D. Knock down of STAT3 reduced the expression of EZH2 and SUZ12. E. Based on the ENCODE STAT3-ChIP-Seq data base, STAT3 occupancy on the promoter areas of SUZ12 and EED is shown. F. SUZ12/EED DNA was detected by ChIP assay using an antibody against STAT3, c-fos was used as a positive control.
(§1) Three primary colon cancer cell lines (SB, WR, JR) were established from fresh colon tissues. These primary colon cancer cells and DLD1 (ATCC) were studied. Colon cancer cells were treated with recombinant IL-22 (R&D) for different time points. The EZH2 inhibitor DZNep was added in conventional or sphere culture (see, e.g., Kryczek, I., et al., (2012) International journal of cancer 130, 29-39). Tumor cell sphere formation and gene expression were examined (see, e.g., Kryczek, I., et al., (2012) International journal of cancer 130, 29-39).
(In general: Dividing cells build labelled thymidine or BrdU into new DNA.)

In test [1] the test system is primary colon cancer cell line SBCA. In words: Proliferation of primary colon cancer cell line SBCA. As to the method: FIG. 21A-E A. Dot1L/H3K79me2 inhibitor EZP004777 (10 uM) had no effect on SUZ12 expression but reduce Sox2. B. EZP004777 had no effect on primary colon cancer cell line SBCA. C. EZH2 inhibitor DZNep reduced SBCA cell proliferation. D. SUZ12 knockdown reduced H3K27m3 level. E. Effect of I1-22 on tumor sphere assay was analyzed in shEZH2, shSUZ12 and Dznep treated cells.
as §1

The values that follow come from patent publication US9618513B2, “Compositions and methods for detecting and treating colorectal cancer” (The Regents of the University of Michigan, priority 2014, dated 2017).

With “CCL20: the ligand for CCR6; CCL-20 (5 ng/ml, R&D)”, in the test with CD4+ T cells, the T cell migration result is “efficiently migrated”.
As for `Nc1nccc2c1ncn2C1C=C(CO)C(O)C1O` (stereo not drawn) [DZNep, reference compound], the “colon cancer cell proliferation induced by IL-22” value in the test on colon cancer cells is reported as “significantly blocked”. Besides, in test [1], the SBCA cell proliferation entry is reported as “reduced”.
